Read-outs that look alike come from different tables or passages of the source. Each block holds one compound with its values, some of them ahead of it.
What was measured:
[1] = Test of common antioxidant additives incorporated into the syrup
Procedure: Another test was conducted, wherein common antioxidant additives were incorporated into the syrup. Ideally, the antioxidant will be soluble in the syrup and is safe for use in foods and pharmaceutical preparations.

[2] = Accelerated storage stability of syrups in sealed vials at 55° C., analysis by HPLC; assay type: physicochemical; conditions: severe storage conditions of the test (55° C.)
Procedure: This level can be readily determined by means of an accelerated storage stability test, in which packages of the final product are stored at elevated temperatures above the usual storage temperatures to which the product is expected to be exposed; the present inventors have used temperatures up to 55° C. for this purpose, although such temperatures tend to cause a minor discoloration (darkening) of the syrups, probably due to some carmelization of the contained sucrose. It is expected that most drug degradation reactions will be accelerated by the elevated temperature. At predetermined intervals, some of the packages are opened and analyzed to determine the amount of active ingredients and impurities present in the formulation.
Twenty five mL portions of the two syrups are placed into 50 mL flint glass vials, then sealed with rubber stoppers and aluminum caps. The sealed vials are stored at 55° C. until their removal and analysis by high performance liquid chromatography.
Sample A from the preceding example and similarly prepared syrups which also contain 0.1, 0.25, 0.5 or 0.75 mg/mL of disodium EDTA are packaged as in the prior example, and stored and tested similarly.

Compound: O=C(O)CN(CCN(CC(=O)O)CC(=O)O)CC(=O)O [EDTA, ethylenediaminetetraacetic acid]
inhibition of the degradation of loratadine [2]: significant inhibition

Compound: O=S([O-])O.[Na+] [sodium bisulfite]
odor imparted to the syrup ([1]; additive in the syrup): pungent, disagreeable odor

Compound: tocopherol
solubility in the syrup ([1]; oil-soluble antioxidants): not soluble

Second part, the compound after the results:

color change in the product ([1]; additive at 0.1 and 1 mg/mL in the syrup): unacceptable strong color change
Compound: O=C1O[C@H]([C@@H](O)CO)C(O)=C1O [ascorbic acid]

solubility in the syrup [1]: not soluble
Compound: Cc1cc(C(C)(C)C)c(O)c(C(C)(C)C)c1 [butylated hydroxytoluene]

Source: patent US6939550B2, “Stabilized antihistamine syrup” (Schering Corporation, priority 1998, dated 2005)
